Laboratory results as given in patent US8962631B2 (Vertex Pharmaceuticals Incorporated, priority 2010, dated 2015).

Molecular target: T1, full-length ATR (Homo sapiens, UniProt Q13535)
T1 construct: Assays were carried out at 25° C. in the presence of 5 nM full-length ATR
Experiment: ATR Inhibition Assay (radioactive-phosphate incorporation)
Format: biochemical
Details: Ki(app); 10 μM ATP, 800 μM target peptide, 5 nM full-length ATR, 25° C.
Experimental: Compounds were screened for their ability to inhibit ATR kinase using a radioactive-phosphate incorporation assay. Assays were carried out in a mixture of 50 mM Tris/HCl (pH 7.5), 10 mM MgCl2 and 1 mM DTT. Final substrate concentrations were 10 μM [γ-33P]ATP (3 mCi 33P ATP/mmol ATP, Perkin Elmer) and 800 μM target peptide ([…] (SEQ. ID NO: 1)).
Assays were carried out at 25° C. in the presence of 5 nM full-length ATR. An assay stock buffer solution was prepared containing all of the reagents listed above, with the exception of ATP and the test compound of interest. 13.5 μL of the stock solution was placed in a 96 well plate followed by addition of 2 μL of DMSO stock containing serial dilutions of the test compound (typically starting from a final concentration of 15 μM with 3-fold serial dilutions) in duplicate (final DMSO concentration 7%). The plate was pre-incubated for 10 minutes at 25° C. and the reaction initiated by addition of 15 μL [γ-33P]ATP (final concentration 10 μM).
The reaction was stopped after 24 hours by the addition of 30 μL 0.1M phosphoric acid containing 2 mM ATP. A multiscreen phosphocellulose filter 96-well plate (Millipore, Cat no. MAPHN0B50) was pretreated with 100 μL 0.2M phosphoric acid prior to the addition of 45 μL of the stopped assay mixture. The plate was washed with […] 0.2M phosphoric acid. After drying, 100 μL Optiphase ‘SuperMix’ liquid scintillation cocktail (Perkin Elmer) was added to the well prior to scintillation counting (1450 Microbeta Liquid Scintillation Counter, Wallac).
After removing mean background values for all of the data points, Ki(app) data were calculated from non-linear regression analysis of the initial rate data using the Prism software package (GraphPad Prism version 3.0cx for Macintosh, GraphPad Software, San Diego Calif., USA).

T1 sequence (Q13535 whole entry): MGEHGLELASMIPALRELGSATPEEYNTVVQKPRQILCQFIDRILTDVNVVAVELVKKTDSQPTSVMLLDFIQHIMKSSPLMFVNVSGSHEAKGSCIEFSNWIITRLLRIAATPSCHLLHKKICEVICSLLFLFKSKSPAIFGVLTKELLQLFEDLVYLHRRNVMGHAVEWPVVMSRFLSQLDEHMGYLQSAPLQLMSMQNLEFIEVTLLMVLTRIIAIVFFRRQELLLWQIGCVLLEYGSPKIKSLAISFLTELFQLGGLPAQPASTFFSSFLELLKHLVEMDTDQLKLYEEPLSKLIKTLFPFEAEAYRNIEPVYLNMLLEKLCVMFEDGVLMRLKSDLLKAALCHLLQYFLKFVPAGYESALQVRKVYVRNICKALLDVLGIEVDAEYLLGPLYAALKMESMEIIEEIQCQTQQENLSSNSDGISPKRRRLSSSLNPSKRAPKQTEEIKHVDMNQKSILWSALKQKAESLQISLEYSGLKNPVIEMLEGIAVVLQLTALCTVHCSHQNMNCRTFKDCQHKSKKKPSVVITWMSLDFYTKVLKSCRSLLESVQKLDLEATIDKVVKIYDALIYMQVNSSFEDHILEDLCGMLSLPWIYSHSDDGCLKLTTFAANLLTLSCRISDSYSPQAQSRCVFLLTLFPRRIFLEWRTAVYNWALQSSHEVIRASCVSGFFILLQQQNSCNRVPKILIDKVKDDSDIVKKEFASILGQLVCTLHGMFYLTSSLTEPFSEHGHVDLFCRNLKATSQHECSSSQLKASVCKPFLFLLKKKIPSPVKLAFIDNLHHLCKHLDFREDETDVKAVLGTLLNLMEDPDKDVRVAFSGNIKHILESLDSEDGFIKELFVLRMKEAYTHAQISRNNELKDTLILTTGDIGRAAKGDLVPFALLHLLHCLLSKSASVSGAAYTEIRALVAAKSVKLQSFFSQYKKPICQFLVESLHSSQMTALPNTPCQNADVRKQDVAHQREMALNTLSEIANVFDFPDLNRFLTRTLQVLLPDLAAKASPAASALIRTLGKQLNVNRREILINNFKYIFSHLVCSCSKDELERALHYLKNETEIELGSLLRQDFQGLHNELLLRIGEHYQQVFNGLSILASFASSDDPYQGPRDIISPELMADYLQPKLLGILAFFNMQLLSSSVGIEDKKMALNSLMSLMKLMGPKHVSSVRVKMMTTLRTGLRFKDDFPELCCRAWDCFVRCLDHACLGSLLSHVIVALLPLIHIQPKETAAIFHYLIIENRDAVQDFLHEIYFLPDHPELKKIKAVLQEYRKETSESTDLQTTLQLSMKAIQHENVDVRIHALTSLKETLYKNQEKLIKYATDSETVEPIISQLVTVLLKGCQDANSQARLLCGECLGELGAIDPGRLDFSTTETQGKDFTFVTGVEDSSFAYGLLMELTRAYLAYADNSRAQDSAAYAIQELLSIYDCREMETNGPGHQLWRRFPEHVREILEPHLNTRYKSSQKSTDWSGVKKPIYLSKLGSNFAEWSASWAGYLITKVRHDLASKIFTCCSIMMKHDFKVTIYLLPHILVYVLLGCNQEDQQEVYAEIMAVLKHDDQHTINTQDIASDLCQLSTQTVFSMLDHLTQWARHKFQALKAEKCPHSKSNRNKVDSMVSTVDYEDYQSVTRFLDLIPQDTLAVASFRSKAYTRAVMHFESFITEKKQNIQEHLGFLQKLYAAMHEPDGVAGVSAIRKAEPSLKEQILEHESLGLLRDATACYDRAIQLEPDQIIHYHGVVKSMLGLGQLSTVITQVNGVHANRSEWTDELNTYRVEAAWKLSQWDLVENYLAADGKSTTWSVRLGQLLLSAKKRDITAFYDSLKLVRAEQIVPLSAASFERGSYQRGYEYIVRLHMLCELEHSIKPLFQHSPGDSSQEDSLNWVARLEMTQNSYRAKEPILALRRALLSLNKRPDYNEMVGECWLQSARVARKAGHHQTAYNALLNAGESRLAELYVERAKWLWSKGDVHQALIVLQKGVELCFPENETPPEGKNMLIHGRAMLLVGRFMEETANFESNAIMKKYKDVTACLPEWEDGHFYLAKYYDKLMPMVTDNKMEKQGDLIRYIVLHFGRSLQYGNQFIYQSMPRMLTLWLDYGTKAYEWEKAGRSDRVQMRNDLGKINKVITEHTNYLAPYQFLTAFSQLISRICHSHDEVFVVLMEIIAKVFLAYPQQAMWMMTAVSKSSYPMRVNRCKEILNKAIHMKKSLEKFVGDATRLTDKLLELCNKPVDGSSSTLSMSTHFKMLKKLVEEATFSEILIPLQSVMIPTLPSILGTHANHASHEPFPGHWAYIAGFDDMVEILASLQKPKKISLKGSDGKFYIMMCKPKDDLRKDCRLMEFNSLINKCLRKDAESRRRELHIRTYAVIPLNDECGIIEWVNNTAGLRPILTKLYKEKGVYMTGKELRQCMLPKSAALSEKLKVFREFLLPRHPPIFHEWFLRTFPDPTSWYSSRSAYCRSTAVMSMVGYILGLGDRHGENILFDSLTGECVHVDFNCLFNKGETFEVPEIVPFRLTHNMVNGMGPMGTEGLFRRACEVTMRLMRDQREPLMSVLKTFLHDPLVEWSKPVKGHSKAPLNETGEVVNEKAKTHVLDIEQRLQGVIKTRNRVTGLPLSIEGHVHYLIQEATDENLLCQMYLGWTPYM

Ki [nM]	SMILES
1000 to 8000	Cc1ccc2nc(-c3nc(C(=O)N(C)CC#N)cnc3N)[nH]c2c1 [II-76, 5-Amino-N-(cyanomethyl)-N-methyl-6-(6-methyl-1H-benzimidazol-2-yl)pyrazine-2-carboxamide]
≤ 500	Cc1ccc2nc(-c3nc(C(=O)NCCC#N)cnc3N)[nH]c2c1 [II-77, 5-Amino-N-(2-cyanoethyl)-6-(6-methyl-1H-benzimidazol-2-yl)pyrazine-2-carboxamide]
500 to 1000	C/C=C/c1cnc(N)c(-c2nc3ccc(C)cc3[nH]2)n1 [II-78, 3-(6-Methyl-1H-benzimidazol-2-yl)-5-[(E)-prop-1-enyl]pyrazin-2-amine]
1000 to 8000	COC/C=C/c1cnc(N)c(-c2nc3ccc(C)cc3[nH]2)n1 [II-80, 5-[(E)-3-Methoxyprop-1-enyl]-3-(6-methyl-1H-benzimidazol-2-yl)pyrazin-2-amine]
500 to 1000	CC(C)(O)C#Cc1cnc(N)c(C(=O)Nc2ccccc2)n1 [II-81, 3-Amino-6-(3-hydroxy-3-methyl-but-1-ynyl)-N-phenyl-pyrazine-2-carboxamide]
500 to 1000	Cc1ccc2nc(-c3nc(C#CCO)cnc3N)[nH]c2c1 [II-82, 3-[5-Amino-6-(6-methyl-1H-benzimidazol-2-yl)pyrazin-2-yl]prop-2-yn-1-ol]
500 to 1000	COCC#Cc1cnc(N)c(-c2nc3ccc(C)cc3[nH]2)n1 [II-83, 5-(3-Methoxyprop-1-ynyl)-3-(6-methyl-1H-benzimidazol-2-yl)pyrazin-2-amine]
1000 to 8000	Cc1ccc2nc(-c3nc(C#CCN(C)C)cnc3N)[nH]c2c1 [II-84, 5-[3-(Dimethylamino)prop-1-ynyl]-3-(6-methyl-1H-benzimidazol-2-yl)pyrazin-2-amine]
≤ 500	Cc1ccc2nc(-c3nc(C#CCN4CCS(=O)(=O)CC4)cnc3N)[nH]c2c1 [II-85, 5-[3-(1,1-Dioxo-1,4-thiazinan-4-yl)prop-1-ynyl]-3-(6-methyl-1H-benzimidazol-2-yl)pyrazin-2-amine]
1000 to 8000	Cc1ccc2nc(-c3nc(C#CCNC(N)=O)cnc3N)[nH]c2c1 [II-86, 3-[5-Amino-6-(6-methyl-1H-benzimidazol-2-yl)pyrazin-2-yl]prop-2-ynylurea]
500 to 1000	Cc1ccc2nc(-c3nc(C#CCNS(C)(=O)=O)cnc3N)[nH]c2c1 [II-87, N-[3-[5-Amino-6-(6-methyl-1H-benzimidazol-2-yl)pyrazin-2-yl]prop-2-ynyl]methanesulfonamide]
≤ 500	CC(=O)NCC#Cc1cnc(N)c(-c2nc3ccc(C)cc3[nH]2)n1 [II-88, N-[3-[5-amino-6-(6-methyl-1H-benzimidazol-2-yl)pyrazin-2-yl]prop-2-ynyl]acetamide]
1000 to 8000	Nc1ncc(C#CCCO)nc1-c1nnc(-c2ccccc2)o1 [II-89, 4-[5-amino-6-(5-phenyl-1,3,4-oxadiazol-2-yl)pyrazin-2-yl]but-3-yn-1-ol]
1000 to 8000	Nc1ncc(C#CCO)nc1-c1nnc(-c2ccccc2)o1 [II-90, 3-[5-amino-6-(5-phenyl-1,3,4-oxadiazol-2-yl)pyrazin-2-yl]prop-2-yn-1-ol]
≤ 500	CC(=O)Nc1cnc(N)c(-c2nc3ccccc3[nH]2)n1 [II-91, N-[5-Amino-6-(1H-benzimidazol-2-yl)pyrazin-2-yl]acetamide]
500 to 1000	Cc1ccc2nc(-c3nc(NC(=O)CC#N)cnc3N)[nH]c2c1 [II-92, N-(5-Amino-6-(6-methyl-1H-benzo[d]imidazol-2-yl)pyrazin-2-yl)-2-cyanoethanamide]
